This is an account of results in US12414911B2, “Topical compositions and methods of use” (priority 2012, dated 2025).

The test system of one test is Staph Aureus. Description: Agar-solid Diffusion Method, inhibition zone. The following applies: Staphylococcus aureus. It is filed as cell-based.
The subject of a further test is P. Acnes. Description: Agar-solid Diffusion Method, inhibition zone. It is filed as cell-based. The following applies: Cutibacterium acnes.
In a further test the test system is E. Coli. The test is described as follows: Agar-solid Diffusion Method, inhibition zone. The following applies: Escherichia coli. It is filed as cell-based.
The subject of a further test is C. Albicans. Description: Agar-solid Diffusion Method, inhibition zone. It is filed as cell-based. The following applies: Candida albicans.
A further test deals with T. Rubrum. Description: Agar-solid Diffusion Method, inhibition zone. It is filed as cell-based. The following applies: Trichophyton rubrum.
Test [1] concerns LTB4 release from macrophages. The test is described as follows: Inhibition of LTB4 release from stimulated macrophage cell line (radioimmunoassay). It is filed as cell-based. The following applies: NDGA 25 uM, positive control. As to the method:
MFSO and the MFB skin extract have Anti-inflammatory Activity.
MFSO and the MFB skin extract were dissolved in DMSO and added to cell culture medium at a stock concentration for use in these in vitro experiments. The ability of MFSO to function as an inhibitor of LTB4 release was evaluated using a macrophage cell line followed by the addition of calcium iontophore for stimulation of LTB4 and the use of a radioimmunoassay (Amersham) for LTB4 detection as previously described (Garrido G, González D, Lemus Y, Garcia D, Lodeiro L, Quintero G, Delporte C, Núñez-Sellés A J, Delgado R. In vivo and in vitro anti-inflammatory activity of Mangifera indica L. extract (VIMANG). Pharmacol Res. 2004 August; 50 (2):143-9). NDGA (25 uM) is a known positive control that inhibits LTB4 release and the vehicle control consisted of DMSO in culture medium with no MFSO.

Test [2] is described as follows: UVB SPF activity of formulations. It is filed as in vivo, human. The following applies: Octinoxate 3% alone. The procedure: Formulations containing MFSO and octyl methoxycinnamate (Octinoxate), alone and in combination, were prepared without changing the vehicle base and tested for UVB SPF activity (2 subjects).
To evaluate for SPF boosting effects of MFSO, a concentration of Octinoxate was selected that gave SPF values that would allow for its efficient absorption and avoid the saturation effect that occurs when higher concentrations of sunscreens are used.

Another test has as its system Normal human spermatozoa. Description: Spermicidal activity (Sander-Cramer assay). The class given is cell-based. Details: key: +: Mobile; −: Immobile; ±: 90% lost mobility. The following applies: 1% concentration. The text has this: Normal human spermatozoa were used to assess the spermicidal activity (Sander-Cramer assay) of MFSO as described (Benhong Z., Zhenpeng Q, Gang L, Chun L, Zhang J. Spermicidal and antigonococcal effects of tannins from pomegranate rind. Journal of Medicinal Plants Research 2012 February; 6 (7); 1334-1339). Nonoxynol-9 was used as a positive reference standard and semen added to physiological saline was used as the negative control. Semen samples were donated by 3 healthy fertile men. The minimum MFSO concentration that caused 100% immobilization of sperm within 20 seconds was considered to be the minimal effective concentration (MEC).

For the molecule `O=C(N[C@H](CO)[C@H](O)c1ccc([N+](=O)[O-])cc1)C(Cl)Cl` [Chloramphenicol], the zone of inhibition at 30 µM in the test on Staph Aureus (30 uM) is 25 mm; in the test on P. Acnes (30 uM), 25 mm; in the test with E. Coli (30 uM) it was 0 mm; in the test on C. Albicans (30 uM) it was 0 mm; in the test with T. Rubrum (30 uM) it was 0 mm.
On to `O=C(O)c1cn(C2CC2)c2cc(N3CCNCC3)c(F)cc2c1=O` [Ciprofloxacin], for which the zone of inhibition at 10 µM was 25 mm with Staph Aureus (10 uM); 22 mm in the test with P. Acnes (10 uM); 25 mm in the test on E. Coli (10 uM); 0 mm with C. Albicans (10 uM); 0 mm in the test on T. Rubrum (10 uM).
Regarding `CC(=O)N1CCN(c2ccc(OCC3COC(Cn4ccnc4)(c4ccc(Cl)cc4Cl)O3)cc2)CC1` (stereo not shown) [Ketoconazole], the zone of inhibition at 1000 µM in the test with Staph Aureus (1 mM) was 0 mm; in the test with P. Acnes (1 mM), 0 mm; with E. Coli (read-out: Inhibition Zone), 0 mm; in the test on C. Albicans (1 mM) it was 25 mm; in the test on T. Rubrum (1 mM), 25 mm.
With `CC(Cc1ccc(O)c(O)c1)C(C)Cc1ccc(O)c(O)c1` (stereo not shown) [NDGA], in test [1], the “inhibition of LTB4 release” value was 98%.
For the molecule `CCCCC(CC)COC(=O)C=Cc1ccc(OC)cc1` (stereo not shown) [Octinoxate, octyl methoxycinnamate], in test [2], the SPF was 3.
For Nonoxynol-9, the “Sperm Motility” value in the test on Normal human spermatozoa (action time 20 seconds) and in the test with Normal human spermatozoa (action time 60 seconds) was “−” throughout.
